Laboratory results taken from paper PMC7828447, “Design, Synthesis and Biological Evaluation of Arylpyridin-2-yl Guanidine Derivatives and Cyclic Mimetics as Novel MSK1 Inhibitors. An Application in an Asthma Model” (Molecules, 2021).

Assays:
[1] = target: T1, human synthetic MSK1 (14-438-K, Millipore) (Homo sapiens, UniProt O75582); experiment: MSK1 enzymatic inhibition assay (Kinase-Glo luminescence); type: biochemical; details: for inhibition at 1 µM: compound at 1 µM, read-out: MSK1 % Inhibition 1 µM; for inhibition at 10 µM: compound at 10 µM, read-out: MSK1 % Inhibition 10 µM
T1 construct: purchased Millipore 14-438-K
Method: All results are summarized in Table 1, Table 2, Table 3, Table 4 and Table 5 and on Figure 4. […]
An orthogonal luminescence-based assay Kinase-Glo® (Promega, Madison, WI, USA) was used to validate the hits, quantifying the amount of the remaining ATP in the solution following the kinase reaction. Enzymatic reactions were performed up to 4h at room temperature in presence of 3 µM ATP. All compounds were tested in quadruplicates at 1 µM and 10 µM. […] Luminescence was measured with EnVision Plate Reader (Perkin Elmer).

[2] = tested on: Balb/C mice; experiment: OVA-induced asthma model, inflammatory cell recruitment in BAL; type: in vivo; details: vs vehicle-treated OVA mice
Method: We decided to use this compound in vivo together with our newly synthesized compound 49d.
Animal experimentation was conducted in accordance with the European Communities Council Directive of 24 November 1986 (86/609/EEC) and the French ministry with the approval of the Regional Ethics Committee for animal research at the Strasbourg University (Authorization number 2015080309399690). Nine week-old male Balb/c mice (Janvier) were sensitized on days 0 and 7 by i.p. injection of ovalbumin (OVA, 50 μg, grade V, Sigma-Aldrich) adsorbed on aluminium hydroxide (2 mg, Sigma-Aldrich) in PBS. Mice were challenged intranasally (i.n.) with OVA (10 μg) in 25 μL of saline on days 18–21. Control mice received i.n. administrations of saline alone. Mice received compound (10 or 30 mg/kg) in saline solution with DMSO 5% or vehicle (saline, DMSO 5%) administered i.p. 2 h before each saline or OVA challenge. Collection of the bronchoalveolar lavage (BAL) fluid was performed 24 h after the last OVA challenge. Cell counts were assessed by flow cytometry (LSRII® cytometer, BD bioscience). BAL cells were added with FCblock (5 μL, 553142, BD bioscience) in a black microplate, incubated for 20 min at room temperature. Then, marker antibodies were added: CD45-AlexaFluor700 (103128, BioLegend, San Diego, CA, USA), CD11b-APC-Cy7 (557657, BD bioscience), CD11c-FITC (557400, BD bioscience, Franklin Lakes, NJ, USA), Gr-1-Pe-eFluor610 (61-5931-82, eBioscience). Antibodies were incubated for 30 min before DAPI (5 μL, BD bioscience) addition, and flow cytometry was performed immediately. Eosinophils were selected by CD45^+, CD11b^+, CD11C^- and GR-1^- gating.

[3] = WST-1 cytotoxicity test (cell viability); details: human, human pulmonary (lung) fibroblasts
Method: (§1) A WST1 (Roche) reagent assay was used to determine the cytotoxicity of compounds at 24 h of incubation. […] The absorbance was measured at 450 nm.

[4] = tested on: human pulmonary fibroblasts; experiment: WST-1 cytotoxicity test (cell viability); details: WST-1, concentrations up to 30 µM
Method: as §1

[5] = tested on: IL-6 production; experiment: Inhibition of IL-6 production (ELISA) in IL-1β-stimulated primary human lung fibroblasts; details: Homo sapiens, Fibroblast; for inhibition at 10 µM: read-out: Il-6 % Inhibition 10 µM; for inhibition at 30 µM: read-out: Il-6 % Inhibition 30 µM
Method: Primary human lung fibroblasts were cultured in DMEM/F-12 medium (Gibco Waltham, MA, USA) complemented with 10% fetal bovine serum (Gibco), penicillin (50 U/mL, Gibco), streptomycin (50 µg/mL, Gibco), L-glutamine (2 mM, Gibco), non-essential amino acids (0.1 mM, Gibco) and insulin (0.12 U/mL, Lilly, Indianapolis, IN, USA) Cells were used at passage 7.

[6] = 10 mg/kg i.p. 2 h before each OVA challenge
[7] = 30 mg/kg i.p. 2 h before each OVA challenge

T1 sequence (O75582 whole entry): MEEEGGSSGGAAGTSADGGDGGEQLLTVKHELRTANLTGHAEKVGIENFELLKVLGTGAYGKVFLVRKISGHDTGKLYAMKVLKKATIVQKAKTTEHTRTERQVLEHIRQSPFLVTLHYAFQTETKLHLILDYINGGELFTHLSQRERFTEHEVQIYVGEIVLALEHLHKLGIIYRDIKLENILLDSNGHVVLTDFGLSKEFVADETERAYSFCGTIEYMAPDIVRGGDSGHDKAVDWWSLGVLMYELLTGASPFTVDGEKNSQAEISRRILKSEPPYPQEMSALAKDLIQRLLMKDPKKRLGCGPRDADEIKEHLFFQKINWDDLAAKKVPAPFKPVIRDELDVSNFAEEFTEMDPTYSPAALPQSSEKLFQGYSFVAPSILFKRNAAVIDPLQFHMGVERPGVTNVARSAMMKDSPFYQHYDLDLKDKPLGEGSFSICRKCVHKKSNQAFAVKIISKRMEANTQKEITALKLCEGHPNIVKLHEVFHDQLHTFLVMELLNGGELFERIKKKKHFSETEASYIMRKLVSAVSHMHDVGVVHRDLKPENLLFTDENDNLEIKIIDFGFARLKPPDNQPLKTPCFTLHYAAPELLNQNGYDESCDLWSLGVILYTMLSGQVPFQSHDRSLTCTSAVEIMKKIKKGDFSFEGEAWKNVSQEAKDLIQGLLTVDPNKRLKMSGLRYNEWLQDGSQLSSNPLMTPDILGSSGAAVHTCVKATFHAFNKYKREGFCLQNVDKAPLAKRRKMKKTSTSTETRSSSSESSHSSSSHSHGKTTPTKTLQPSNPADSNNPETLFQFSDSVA

SMILES | inhibition at 1 µM ([1]; ± Standard Deviation (n = 4)) | inhibition at 10 µM ([1]; ± Standard Deviation (n = 4)) | fold more potent MSK1 inhibitor compared to the parent compound ([1]; versus parent compound 1a) | IC50 ([1]; ± Standard Deviation (n = 4), 8 concentrations 0.03-100 µM, read-out: MSK1 IC50) | inhibition of B cell infiltration in BAL [2, 6] | inhibition of eosinophil infiltration in BAL [2, 6] | inhibition of total cell infiltration in BAL [2, 6] | viability at 24 h, 10 µM [3] | viability at 24 h, 30 µM [3] | cytotoxicity (in words) [4] | inhibition at 10 µM [5] | inhibition at 30 µM [5] | decrease of B cells infiltration in BAL [2, 7] | decrease of eosinophil infiltration in BAL [2, 7] | decrease of total cell infiltration in BAL [2, 7] | IC50 ([5]; read-out: Il-6 IC50 (µM), IL-1β stimulation, 0.3-30 µM, n = 4)
Br.Nc1nc2c(-c3ccccc3Cl)cccc2[nH]1 [Compound 49d, 4-(2-Chlorophenyl)-1H-benzo[d]imidazol-2-amine Hydrobromide] | 21 ± 5% | 71 ± 7% | 10 fold | 1600 ± 100 nM | 47 ± 1% | 39 ± 3% | 33 ± 3% | 85 ± 13% | 76 ± 12% | non-cytotoxic | 39 ± 15% | 57 ± 2% |  |  |  | 
O=C1NCCc2[nH]c(-c3ccncc3)cc21 [PHA767491, reference compound] | 72 ± 5% | 94 ± 4% |  |  |  |  |  | 95 ± 9% | 87 ± 7% |  | 97 ± 1% | 98 ± 2% | 68 ± 7% | 57 ± 7% | 51 ± 6% | 1 ± 0.1 µM
